Measurements: the supplement of paper PMC10307832

Assays:
Test in all cases: relative viability (nuclei count vs DMSO), 5 days (fraction); higher = more cells survive
CAP-232 + Trametinib = compound: C[C@H]([C@@H](C(=O)N)NC(=O)[C@@H]1CSSC[C@@H](C(=O)N[C@H](C(=O)N[C@@H](C(=O)N[C@H](C(=O)N1)CCCCN)CC2=CNC3=CC=CC=C32)CC4=CC=C(C=C4)O)NC(=O)[C@@H](CC5=CC=CC=C5)N)O [CAP-232] + CC(=O)Nc1cccc(-n2c(=O)n(C3CC3)c(=O)c3c(Nc4ccc(I)cc4F)n(C)c(=O)c(C)c32)c1 [Trametinib] (partner 0.02 µM)
Summary of the method: (§1)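 Medians of duplicate plates are given as relative viability. That measure is the nuclei count in treated wells divided by the count in vehicle wells. Counts were taken on 4× images of lung cancer cell lines in 1536-well plates, 5 days after pin-tool dosing the day after seeding with one drug alone or a fixed anchor-drug dose plus five library-drug doses (not always all listed) in √10 steps.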

CAP-232 + Palbociclib = compound: C[C@H]([C@@H](C(=O)N)NC(=O)[C@@H]1CSSC[C@@H](C(=O)N[C@H](C(=O)N[C@@H](C(=O)N[C@H](C(=O)N1)CCCCN)CC2=CNC3=CC=CC=C32)CC4=CC=C(C=C4)O)NC(=O)[C@@H](CC5=CC=CC=C5)N)O [CAP-232] + CC(=O)c1c(C)c2cnc(Nc3ccc(N4CCNCC4)cn3)nc2n(C2CCCC2)c1=O [Palbociclib] (partner 0.5 µM)
Summary of the method: as §1

CAP-232 + Tozasertib = compound: C[C@H]([C@@H](C(=O)N)NC(=O)[C@@H]1CSSC[C@@H](C(=O)N[C@H](C(=O)N[C@@H](C(=O)N[C@H](C(=O)N1)CCCCN)CC2=CNC3=CC=CC=C32)CC4=CC=C(C=C4)O)NC(=O)[C@@H](CC5=CC=CC=C5)N)O [CAP-232] + Cc1cc(Nc2cc(N3CCN(C)CC3)nc(Sc3ccc(NC(=O)C4CC4)cc3)n2)n[nH]1 [Tozasertib] (partner 0.1 µM)
Summary of the method: as §1

CAP-232 + Dasatinib = compound: C[C@H]([C@@H](C(=O)N)NC(=O)[C@@H]1CSSC[C@@H](C(=O)N[C@H](C(=O)N[C@@H](C(=O)N[C@H](C(=O)N1)CCCCN)CC2=CNC3=CC=CC=C32)CC4=CC=C(C=C4)O)NC(=O)[C@@H](CC5=CC=CC=C5)N)O [CAP-232] + Cc1nc(Nc2ncc(C(=O)Nc3c(C)cccc3Cl)s2)cc(N2CCN(CCO)CC2)n1 [Dasatinib] (partner 0.075 µM)
Summary of the method: as §1

CAP-232 + AZD7762 = compound: C[C@H]([C@@H](C(=O)N)NC(=O)[C@@H]1CSSC[C@@H](C(=O)N[C@H](C(=O)N[C@@H](C(=O)N[C@H](C(=O)N1)CCCCN)CC2=CNC3=CC=CC=C32)CC4=CC=C(C=C4)O)NC(=O)[C@@H](CC5=CC=CC=C5)N)O [CAP-232] + NC(=O)Nc1cc(-c2cccc(F)c2)sc1C(=O)N[C@H]1CCCNC1 [AZD7762] (partner 0.2 µM)
Summary of the method: as §1

Cell Line | relative viability (CAP-232 + Trametinib; first compound 0.4 µM) | relative viability (CAP-232 + Trametinib; first compound 1.265 µM) | relative viability (CAP-232 + Trametinib; first compound 4 µM) | relative viability (CAP-232 + Trametinib; first compound 12.65 µM) | relative viability (CAP-232 + Palbociclib; first compound 0.4 µM) | relative viability (CAP-232 + Palbociclib; first compound 1.265 µM) | relative viability (CAP-232 + Palbociclib; first compound 4 µM) | relative viability (CAP-232 + Palbociclib; first compound 12.65 µM) | relative viability (CAP-232 + Tozasertib; first compound 0.4 µM) | relative viability (CAP-232 + Tozasertib; first compound 1.265 µM) | relative viability (CAP-232 + Tozasertib; first compound 4 µM) | relative viability (CAP-232 + Tozasertib; first compound 12.65 µM) | relative viability (CAP-232 + Dasatinib; first compound 0.4 µM) | relative viability (CAP-232 + Dasatinib; first compound 1.265 µM) | relative viability (CAP-232 + Dasatinib; first compound 4 µM) | relative viability (CAP-232 + Dasatinib; first compound 12.65 µM) | relative viability (CAP-232 + AZD7762; first compound 0.4 µM) | relative viability (CAP-232 + AZD7762; first compound 1.265 µM) | relative viability (CAP-232 + AZD7762; first compound 4 µM) | relative viability (CAP-232 + AZD7762; first compound 12.65 µM)
NCI-H1993 | 0.443 | 0.491 | 0.589 | 0.429 | 0.701 | 0.586 | 0.62 | 0.602 | 0.621 | 0.569 | 0.664 | 0.582 | 0.619 | 0.539 | 0.682 | 0.558 | 0.756 | 0.702 | 0.694 | 0.633
HARA | 0.323 | 0.9 | 0.643 | 0.506 | 0.236 | 0.31 | 0.246 | 0.265 | 0.0986 | 0.0955 | 0.144 | 0.0866 | 0.266 | 0.256 | 0.305 | 0.27 | 0.397 | 0.576 | 0.267 | 0.315
NCI-H460 | 0.134 | 0.208 | 0.165 | 0.0175 | 0.246 | 0.148 | 0.155 | 0.0823 | 0.487 | 0.463 | 0.634 | 0.396 | 0.704 | 0.478 | 0.581 | 0.419 | 0.856 | 0.58 | 0.734 | 0.416
EKVX | 0.583 | 0.342 | 0.268 | 0.331 | 0.387 | 0.339 | 0.262 | 0.262 | 0.352 | 0.376 | 0.422 | 0.31 | 0.457 | 0.605 | 0.499 | 0.509 | 0.899 | 0.712 | 0.699 | 0.471
NCI-H1755 | 0.765 | 0.724 | 0.792 | 0.771 | 0.474 | 0.406 | 0.48 | 0.413 | 0.581 | 0.498 | 0.58 | 0.498 | 0.358 | 0.461 | 0.48 | 0.372 | 0.453 | 0.396 | 0.536 | 0.403
NCI-H1395 | 1.17 | – | 1.06 | 1.1 | 0.679 | – | 0.665 | 0.578 | 0.677 | 0.793 | 0.765 | 0.79 | 0.413 | 0.445 | 0.426 | 0.388 | 0.511 | – | 0.423 | 0.224
NCI-H2087 | 0.188 | 0.228 | 0.201 | 0.205 | 0.214 | 0.225 | 0.218 | 0.226 | 0.193 | 0.212 | 0.221 | 0.311 | 0.681 | 0.969 | 0.757 | 0.737 | 1.32 | 1.4 | 1.59 | 0.684
H3255 | 0.608 | – | 0.543 | 0.436 | 0.314 | 0.32 | 0.329 | 0.282 | 0.612 | 0.733 | 0.791 | 0.893 | 0.352 | 0.353 | 0.455 | 0.338 | 0.979 | 0.869 | 0.898 | 0.756
NCI-H23 | 0.339 | 0.435 | 0.439 | 0.28 | 0.437 | 0.478 | 0.523 | 0.567 | 0.416 | 0.386 | 0.384 | 0.309 | 0.714 | 0.609 | 0.891 | 0.844 | 0.286 | 0.236 | 0.239 | 0.22
HCC-827 | 0.469 | 0.543 | 0.491 | 0.549 | 0.423 | 0.498 | 0.461 | 0.514 | 0.525 | 0.41 | 0.417 | 0.484 | 0.312 | 0.302 | 0.312 | 0.23 | 0.19 | 0.204 | 0.174 | 0.182
HCC-78 | 0.688 | 0.824 | 0.918 | 0.727 | 0.481 | 0.496 | 0.552 | 0.49 | 0.257 | 0.405 | 0.493 | 0.492 | 0.431 | 0.392 | 0.523 | 0.363 | 0.747 | 0.612 | 0.591 | 0.713
NCI-H727 | 0.383 | 0.397 | 0.442 | 0.415 | 0.528 | 0.65 | 0.558 | 0.701 | 0.491 | 0.525 | 0.698 | 0.499 | 0.301 | 0.362 | 0.38 | 0.335 | 0.572 | 0.586 | 0.612 | 0.617
NCI-H1975 | 0.368 | 0.262 | 0.743 | 0.225 | 0.664 | 0.486 | 0.74 | 0.324 | 0.968 | 0.75 | 0.94 | 0.482 | 0.513 | 0.319 | 0.468 | 0.21 | 0.892 | 0.711 | 0.712 | 0.442
CAL-12T | 0.233 | 0.303 | 0.394 | 0.162 | 0.422 | 0.552 | 0.376 | 0.179 | 0.434 | 0.264 | 0.262 | 0.358 | 0.32 | 0.409 | 0.521 | 0.138 | 0.753 | 0.596 | 0.664 | 0.706
NCI-H2126 | 0.622 | 0.523 | 0.561 | 0.602 | 0.345 | 0.315 | 0.341 | 0.359 | 0.801 | 0.799 | 0.885 | 0.822 | 0.639 | 0.585 | 0.704 | 0.571 | 1.11 | 1.01 | 1.18 | 1.01
